Results reported in patent US20200288711A1, “Pyrimidin-4-Carbamate or Urea Derivatives As Herbicides” (Syngenta Participations AG, priority 2017, published 2020).

Columns and labels:
Assay type in all cases: in vivo
Zea mays (ZEAMX) [1] = test: B1 pre-emergence herbicidal activity; set-up: key: 5=total damage to plant; 0=no damage to plant; conditions: Test 1a, rate 1000 g/ha, evaluated after 13 days, score 0-5 (5=total damage, 0=no damage)
Method: (§1) Seeds of a variety of test species were sown in standard soil in pots: Triticum aestivium (TRZAW), Avena fatua (AVEFA), Alopecurus myosuroides (ALOMY), Echinochloa crus-galli (ECHCG), Lolium perenne (LOLPE), Zea mays (ZEAMX), Abutilon theophrasti (ABUTH), Amaranthus retroflexus (AMARE) and Setaria faberi (SETFA). After cultivation for one day (pre-emergence) under controlled conditions in a glasshouse (at 24/16° C., day/night; 14 hours light; 65% humidity), the plants were sprayed with an aqueous spray solution derived from the formulation of the technical active ingredient in acetone/water (50:50) solution containing 0.5% Tween 20 (polyoxyethelyene sorbitan monolaurate, CAS RN 9005-64-5). The test plants were then grown in a glasshouse under controlled conditions (at 24/16° C., day/night; 14 hours light; 65% humidity) and watered twice daily. After 13 days, the test was evaluated (5=total damage to plant; 0=no damage to plant).

[2] = system: Amaranthus retroflexus (AMARE); test: B1 pre-emergence herbicidal activity; set-up: key: 5=total damage to plant; 0=no damage to plant; conditions: Test 1a, rate 1000 g/ha, evaluated after 13 days, score 0-5 (5=total damage, 0=no damage)
Method: as §1

[3] = system: Abutilon theophrasti (ABUTH); test: B1 pre-emergence herbicidal activity; set-up: key: 5=total damage to plant; 0=no damage to plant; conditions: Test 1a, rate 1000 g/ha, evaluated after 13 days, score 0-5 (5=total damage, 0=no damage)
Method: as §1

Lolium perenne (LOLPE) [4] = test: B1 pre-emergence herbicidal activity; set-up: key: 5=total damage to plant; 0=no damage to plant; conditions: rate 1000 g/ha, evaluated after 13 days, score 0-5 (5=total damage, 0=no damage); for Pre-emergence herbicidal activity, LOLPE: Test 1b
Method: as §1

[5] = system: Abutilon theophrasti (ABUTH); test: B2 post-emergence herbicidal activity; conditions: Test 2a, rate 1000 g/ha, evaluated after 13 days, score 0-5 (5=total damage, 0=no damage)
Method: (§2) Seeds of a variety of test species were sown in standard soil in pots: Triticum aestivium (TRZAW), Avena fatua (AVEFA), Alopecurus myosuroides (ALOMY), Echinochloa crus-galli (ECHCG), Lolium perenne (LOLPE), Zea mays (ZEAMX), Abutilon theophrasti (ABUTH), Amaranthus retroflexus (AMARE) and Setaria faberi (SETFA). After 8 days cultivation (post-emergence) under controlled conditions in a glasshouse (at 24/16° C., day/night; 14 hours light; 65% humidity), the plants were sprayed with an aqueous spray solution derived from the formulation of the technical active ingredient in acetone/water (50:50) solution containing 0.5% Tween 20 (polyoxyethelyene sorbitan monolaurate, CAS RN 9005-64-5). The test plants were then grown in a glasshouse under controlled conditions (at 24/16° C., day/night; 14 hours light; 65% humidity) and watered twice daily. After 13 days, the test was evaluated (5=total damage to plant; 0=no damage to plant).

Zea mays (ZEAMX) [6] = test: B2 post-emergence herbicidal activity; set-up: key: 5=total damage to plant; 0=no damage to plant; conditions: Test 2a, rate 1000 g/ha, evaluated after 13 days, score 0-5 (5=total damage, 0=no damage)
Method: as §2

[7] = system: Echinochloa crus-galli (ECHCG); test: B2 post-emergence herbicidal activity; set-up: key: 5=total damage to plant; 0=no damage to plant; conditions: rate 1000 g/ha, evaluated after 13 days, score 0-5 (5=total damage, 0=no damage)
Method: as §2

Setaria faberi (SETFA) [8] = test: B2 post-emergence herbicidal activity; set-up: key: 5=total damage to plant; 0=no damage to plant; conditions: rate 1000 g/ha, evaluated after 13 days, score 0-5 (5=total damage, 0=no damage)
Method: as §2

[9] = system: Amaranthus retroflexus (AMARE); test: B2 post-emergence herbicidal activity; set-up: key: 5=total damage to plant; 0=no damage to plant; conditions: Test 2a, rate 1000 g/ha, evaluated after 13 days, score 0-5 (5=total damage, 0=no damage)
Method: as §2

Lolium perenne (LOLPE) [10] = test: B2 post-emergence herbicidal activity; set-up: key: 5=total damage to plant; 0=no damage to plant; conditions: rate 1000 g/ha, evaluated after 13 days, score 0-5 (5=total damage, 0=no damage)
Method: as §2

[11] = system: Echinochloa crus-galli (ECHCG); test: B1 pre-emergence herbicidal activity; set-up: key to Pre-emergence herbicidal activity, ECHCG: 5=total damage to plant; 0=no damage to plant; conditions: rate 1000 g/ha, evaluated after 13 days, score 0-5 (5=total damage, 0=no damage); for Pre-emergence herbicidal activity, ECHCG: Test 1b
Method: as §1

Setaria faberi (SETFA) [12] = test: B1 pre-emergence herbicidal activity; set-up: key to Pre-emergence herbicidal activity, SETFA: 5=total damage to plant; 0=no damage to plant; conditions: rate 1000 g/ha, evaluated after 13 days, score 0-5 (5=total damage, 0=no damage); for Pre-emergence herbicidal activity, SETFA: Test 1b
Method: as §1

[13] = system: Alopecurus myosuroides (ALOMY); test: B1 pre-emergence herbicidal activity; set-up: key: 5=total damage to plant; 0=no damage to plant; conditions: Test 1b, rate 1000 g/ha, evaluated after 13 days, score 0-5 (5=total damage, 0=no damage)
Method: as §1

[14] = system: Triticum aestivium (TRZAW); test: B1 pre-emergence herbicidal activity; set-up: key: 5=total damage to plant; 0=no damage to plant; conditions: Test 1b, rate 1000 g/ha, evaluated after 13 days, score 0-5 (5=total damage, 0=no damage)
Method: as §1

Avena fatua (AVEFA) [15] = test: B1 pre-emergence herbicidal activity; set-up: key: 5=total damage to plant; 0=no damage to plant; conditions: Test 1b, rate 1000 g/ha, evaluated after 13 days, score 0-5 (5=total damage, 0=no damage)
Method: as §1

[16] = system: Alopecurus myosuroides (ALOMY); test: B2 post-emergence herbicidal activity; set-up: key: 5=total damage to plant; 0=no damage to plant; conditions: Test 2b, rate 1000 g/ha, evaluated after 13 days, score 0-5 (5=total damage, 0=no damage)
Method: as §2

[17] = system: Triticum aestivium (TRZAW); test: B2 post-emergence herbicidal activity; set-up: key: 5=total damage to plant; 0=no damage to plant; conditions: Test 2b, rate 1000 g/ha, evaluated after 13 days, score 0-5 (5=total damage, 0=no damage)
Method: as §2

Avena fatua (AVEFA) [18] = test: B2 post-emergence herbicidal activity; set-up: key: 5=total damage to plant; 0=no damage to plant; conditions: Test 2b, rate 1000 g/ha, evaluated after 13 days, score 0-5 (5=total damage, 0=no damage)
Method: as §2

SMILES	Pre-emergence herbicidal activity, ALOMY [13]	Pre-emergence herbicidal activity, TRAZW [14]	Pre-emergence herbicidal activity, AVEFA (Avena fatua (AVEFA) [15])	Pre-emergence herbicidal activity, LOLPE (Lolium perenne (LOLPE) [4])	Control of weed species after post-emergence application, ALOMY [16]	Control of weed species after post-emergence application, ECHCG ([7]; Test 2b)	Control of weed species after post-emergence application, TRAZW [17]	Control of weed species after post-emergence application, SETFA (Setaria faberi (SETFA) [8]; Test 2b)	Control of weed species after post-emergence application, AVEFA (Avena fatua (AVEFA) [18])	Control of weed species after post-emergence application, LOLPE (Lolium perenne (LOLPE) [10]; Test 2b)	Pre-emergence herbicidal activity, ECHCG [11]	Pre-emergence herbicidal activity, SETFA (Setaria faberi (SETFA) [12])	also measured
Cc1nc(-c2cncc(F)c2)ncc1NC(=O)OC(C)(C)C [Compound E1, tert-butyl N-[2-(5-fluoro-3-pyridyl)-4-methyl-pyrimidin-5-yl]carbamate]													Control of weed species after pre-emergence application, ZEAMX (Zea mays (ZEAMX) [1]): 5; Control of weed species after pre-emergence application, AMARE [2]: 0; Control of weed species after pre-emergence application, ABUTH [3]: 0; Control of weed species after pre-emergence application, LOLPE (Lolium perenne (LOLPE) [4]; Test 1a): 1; Control of weed species after post-emergence application, ABUTH [5]: 1; Control of weed species after post-emergence application, ZEAMX (Zea mays (ZEAMX) [6]): 5; Control of weed species after post-emergence application, ECHCG ([7]; Test 2a): 4; Control of weed species after post-emergence application, SETFA (Setaria faberi (SETFA) [8]; Test 2a): 5; Control of weed species after post-emergence application, AMARE [9]: 2; Control of weed species after post-emergence application, LOLPE (Lolium perenne (LOLPE) [10]; Test 2a): 2; Control of weed species after pre-emergence application, ECHCG ([11]; Test 1a): 4; Control of weed species after pre-emergence application, SETFA (Setaria faberi (SETFA) [12]; Test 1a): 4
CN(C)C(=O)Nc1cnc(-c2cncc(F)c2)nc1C(F)(F)F [Compound E13]	0	0	1	1	1	4	2	5	3	3	3	4	
CC(C)OC(=O)Nc1cnc(-c2cncc(F)c2)nc1C(F)(F)F [Compound E14, isopropyl N-[2-(5-fluoro-3-pyridyl)-4-(trifluoromethyl)pyrimidin-5-yl]carbamate]	0	0	1	0	0	4	1	5	3	3	3	5	
CC(C)COC(=O)Nc1cnc(-c2cncc(F)c2)nc1C(F)(F)F [Compound E15]	0	0	2	1	1	5	2	5	4	3	5	5	
O=C1OCCN1c1cnc(-c2cncc(F)c2)nc1C(F)(F)F [Compound E17]	0	0	0	0	0	3	1	4	2	1	3	4	
CCC(C)OC(=O)Nc1cnc(-c2cncc(F)c2)nc1C(F)(F)F (stereo not drawn) [Compound E18]	0	1	1	0	0	4	0	5	1	1	2	5	
CCOC(=O)Nc1cnc(-c2cncc(F)c2)nc1C(F)(F)F [Compound E19]	0	0	0	1	0	5	1	5	3	3	3	4	
CC(C)(C)OC(=O)Nc1cnc(-c2cncc(F)c2)nc1OCc1ccccc1 [Compound E20]	0	0	0	0	0	0	0	1	0	0	0	0	
COC(=O)Nc1cnc(-c2cncc(F)c2)nc1C(F)(F)F [Compound E21]	1	1	0	0	1	5	1	4	4	2	3	4	
CC(C)OC(=O)N(C(=O)OC(C)C)c1cnc(-c2cncc(F)c2)nc1C(F)(F)F [Compound E22]	0	0	0	0	0	5	4	1	0	4	3	4	
